Patent US11976061B2, “Preparation of benzimidazolone derivatives as novel diacylglyceride O-acyltransferase 2 inhibitors” (Merck Sharp & Dohme LLC, priority 2020, dated 2024)

Biological target: T1, human DGAT2 (hDGAT2) (Homo sapiens, UniProt Q96PD7)
T1 construct: made in house; host or cells: Sf-9 insect cells (baculovirus), membrane fraction
T1 sequence (Q96PD7 1-388): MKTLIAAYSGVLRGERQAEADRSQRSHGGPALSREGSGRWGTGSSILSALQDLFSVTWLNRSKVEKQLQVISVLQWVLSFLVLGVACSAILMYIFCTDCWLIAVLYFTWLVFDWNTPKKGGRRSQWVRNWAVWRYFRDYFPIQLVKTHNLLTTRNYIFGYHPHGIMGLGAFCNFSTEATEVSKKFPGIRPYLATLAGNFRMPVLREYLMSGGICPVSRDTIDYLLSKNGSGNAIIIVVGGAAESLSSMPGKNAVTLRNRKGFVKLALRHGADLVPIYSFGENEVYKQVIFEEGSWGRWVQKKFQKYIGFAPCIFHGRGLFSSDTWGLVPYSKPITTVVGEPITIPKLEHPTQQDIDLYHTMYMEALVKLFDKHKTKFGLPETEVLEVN
Assay: DGAT2 Enzymatic Activity Assay
Type: biochemical
Conditions: membrane prep of Sf-9 cells expressing hDGAT2; 25 μM diolein, 5 μM 13C oleoyl-CoA; 13C18-triolein by LC/MS/MS; read-out: DGAT2 IC50
Experimental: Insect Cell Expression and Membrane Preparation
Sf-9 insect cells were maintained in Grace's insect cell culture medium with 10% heated-inactivated fetal bovine serum, 1% Pluronic F-68 and 0.14 μg/ml Kanamycine sulfate at 27° C. in a shaker incubator. After infection with untagged baculovirus expressing human DGAT2 (hDGAT2) at multiplicity of infection (MOI) 3 for 48 hours, cells were harvested. Cell pellets were suspended in buffer containing 10 mM Tris-HCl pH 7.5, 1 mM EDTA, 250 mM sucrose and Complete Protease Inhibitor Cocktail (Sigma Aldrich), and sonicated on ice. Cell debris were removed by centrifugation at 2000×g for 15 minutes. Membrane fractions were isolated by ultracentrifugation (100,000×g), resuspended in the same buffer, and frozen (−80° C.) for later use. The protein concentration was determined with the Pierce™ BCA Protein Assay Kit (Thermo Fisher Scientific). Expression of protein levels was analyzed by immunoblotting with rabbit anti-DGAT2 antibody (Abcam, ab102831) and donkey anti-rabbit IgG H&L Alexa Fluor® 647 (Abcam, ab150075) followed by detection using Typhoon FLA9000 (GE Healthcare).
LC/MS/MS analyses were performed using Thermal Fisher's LX4-TSQ Vantage system. This system consists of an Agilent binary high-performance liquid chromatography (HPLC) pump and a TSQ Vantage triple quadrupole MS/MS instrument. For each sample, 2 μL samples from the top organic layer of in-plate liquid-liquid extraction were injected onto a Thermo Betabasic C4 column (2.1 mm×20 mm, 5 μm particle size). The samples were then eluted using the following conditions; mobile phase: Isopropanol:acetonitrile/10 mM ammonium formate=50/35/15 (v/v/v), flow rate: 0.8 mL/min, temperature: 25° C. Data was acquired in positive mode using a heated electrospray ionization (HESI) interface. The operational parameters for the TSQ Vantage MS/MS instrument were a spray voltage of 3000 V, capillary temperature of 280° C., vaporizer temperature 400° C., sheath gas 45 arbitrary unit, Aux gas 10 arbitrary units, S-lens 165 and collision gas 1.0 mTorr. […] (SRM) chromatograms of ^13C18-triolein (Q1: 920.8>Q3: 621.3) and internal standard ^13C21-triolein (Q1: 923.8>Q3: 617.3) were collected for 33 sec. The peak area was integrated by Xcalibur Quan software. The ratio between the ^13C18triolein generated in the reaction and spiked in internal standard ^13C21-triolein was used to generate percentage inhibition and IC50 values. Compound percentage inhibition was calculated by the following formula: Inhibition %=1−[(compound response−low control)/(high control−low control)]×100%. Potent compounds were titrated and IC50 were calculated by 4 parameter sigmoidal curve fitting formula.
DGAT2 Enzymatic Activity Assay
DGAT2 activity was determined by measuring the amount of enzymatic product ^13C18-triolein (^13C-1,2,3-Tri(cis-9-octadecenoyl)glycerol) using the membrane prep mentioned above. The assay was carried out in ABgene 384-well assay plates in a final volume of 25 μL at rt. The assay mixture contained the following: assay buffer (100 mM Tris·Cl, pH 7.0, 20 mM MgCl2, 5% ethanol), 25 μM of diolein, 5 μM of ^13C oleoyl-CoA and 8 ng/μL of DGAT2 membrane.

SMILES	IC50 [nM]
CCOc1cc(-n2c(=O)n(C(C)C(C)(C)O)c3cc(C(=O)NC4(C)CS(=O)(=O)C4)ccc32)c(F)cn1 (single isomer, unassigned) [Example 78a, 1-(2-ethoxy-5-fluoropyridin-4-yl)-3-(3-hydroxy-3-methylbutan-2-yl)-N-(3-methyl-1,1-dioxidothietan-3-yl)-2-oxo-2,3-dihydro-1H-benzo[d]imidazole-5-carboxamide]	123
CCOc1cc(-n2c(=O)n(C(C)C(C)(C)O)c3cc(C(=O)NC4(C)CS(=O)(=O)C4)ccc32)c(F)cn1 (single isomer, unassigned) [Example 78b, 1-(2-ethoxy-5-fluoropyridin-4-yl)-3-(3-hydroxy-3-methylbutan-2-yl)-N-(3-methyl-1,1-dioxidothietan-3-yl)-2-oxo-2,3-dihydro-1H-benzo[d]imidazole-5-carboxamide]	13

Same assay, conditions: membrane prep of Sf-9 cells expressing hDGAT2; 25 μM diolein, 5 μM 13C oleoyl-CoA; 13C18-triolein by LC/MS/MS; read-out: Human DGAT2 IC50

SMILES	IC50 [nM]
C[C@@]1(NC(=O)c2ccc3c(c2)n(-c2ccc(F)cc2)c(=O)n3-c2ccc(F)cc2)CCS(=O)(=O)C1 [Example 1, (R)-1,3-bis(4-fluorophenyl)-N-(3-methyl-1,1-dioxidotetrahydrothiophen-3-yl)-2-oxo-2,3-dihydro-1H-benzo[d]imidazole-5-carboxamide]	573
CC1(NC(=O)c2ccc3c(c2)n(-c2ccc(F)cc2)c(=O)n3-c2cccc(OC(F)F)c2)CS(=O)(=O)C1 [Example 2, 1-(3-(difluoromethoxy)phenyl)-3-(4-fluorophenyl)-N-(3-methyl-1,1-dioxidothietan-3-yl)-2-oxo-2,3-dihydro-1H-benzo[d]imidazole-5-carboxamide]	1.8
C[C@@]1(NC(=O)c2ccc3c(c2)n(-c2ccc(F)cc2)c(=O)n3-c2cccc(OC(F)F)c2)CCS(=O)(=O)C1 [Example 3, (R)-1-(3-(difluoromethoxy)phenyl)-3-(4-fluorophenyl)-N-(3-methyl-1,1-dioxidotetrahydrothiophen-3-yl)-2-oxo-2,3-dihydro-1H-benzo[d]imidazole-5-carboxamide]	2.4
CC1(NC(=O)c2cnc3c(c2)n(-c2ccc(F)cc2)c(=O)n3-c2cccc(OC(F)F)c2)CS(=O)(=O)C1 [Example 4, 3-(3-(difluoromethoxy)phenyl)-1-(4-fluorophenyl)-N-(3-methyl-1,1-dioxidothietan-3-yl)-2-oxo-2,3-dihydro-1H-imidazo[4,5-b]pyridine-6-carboxamide]	8.5
CC(C)n1c(=O)n(-c2cc(OC(F)F)ncc2F)c2ccc(C(=O)NC3(C)CCS(=O)(=O)CC3)cc21 [Example 5, 1-(2-(Difluoromethoxy)-5-fluoropyridin-4-yl)-3-isopropyl-N-(4-methyl-1,1-dioxidotetrahydro-2H-thiopyran-4-yl)-2-oxo-2,3-dihydro-1H-benzo[d]imidazole-5-carboxamide]	34
CC(C)Oc1cccc(-n2c(=O)n(C(C)C)c3cc(C(=O)NC4(C)CS(=O)(=O)C4)ccc32)c1 [Example 6, 1-(3-isopropoxyphenyl)-3-isopropyl-N-(3-methyl-1,1-dioxo-thietan-3-yl)-2-oxo-benzimidazole-5-carboxamide]	88
CC(C)n1c(=O)n(-c2cccc(OC(F)(F)C(F)F)c2)c2ccc(C(=O)NC3(C)CS(=O)(=O)C3)cc21 [Example 7, 3-isopropyl-N-(3-methyl-1,1-dioxo-thietan-3-yl)-2-oxo-1-[3-(1,1,2,2-tetrafluoroethoxy)phenyl]benz-imidazole-5-carboxamide]	16
CC(C)n1c(=O)n(-c2cccc(OCC(F)F)c2)c2ccc(C(=O)NC3(C)CS(=O)(=O)C3)cc21 [Example 8, 1-[3-(2,2-difluoroethoxy)phenyl]-3-isopropyl-N-(3-methyl-1,1-dioxo-thietan-3-yl)-2-oxo-benzimidazole-5-carboxamide]	43
CCOc1cccc(-n2c(=O)n(C(C)C)c3cc(C(=O)NC4(C)CS(=O)(=O)C4)ccc32)c1 [Example 9, 1-(3-ethoxyphenyl)-3-isopropyl-N-(3-methyl-1,1-dioxo-thietan-3-yl)-2-oxo-benzimidazole-5-carboxamide]	4.3
CC(C)n1c(=O)n(-c2cccc(OC(F)(F)F)c2)c2ccc(C(=O)NC3(C)CCS(=O)(=O)CC3)cc21 [Example 10, 3-isopropyl-N-(4-methyl-1,1-dioxo-thian-4-yl)-2-oxo-1-[3-(trifluoromethoxy)phenyl]benz-imidazole-5-carboxamide]	153
CC(C)n1c(=O)n(-c2cccc(OCC(F)F)c2)c2ccc(C(=O)NC3(C)CCS(=O)(=O)CC3)cc21 [Example 11, 1-[3-(2,2-difluoroethoxy)phenyl]-3-isopropyl-N-(4-methyl-1,1-dioxo-thian-4-yl)-2-oxo-benzimidazole-5-carboxamide]	15
CC(C)n1c(=O)n(-c2cc(OC(F)F)ccn2)c2ccc(C(=O)NC3(C)CS(=O)(=O)C3)cc21 [Example 12, 1-[4-(difluoromethoxy)-2-pyridyl]-3-isopropyl-N-(3-methyl-1,1-dioxo-thietan-3-yl)-2-oxo-benzimidazole-5-carboxamide]	122
CC(C)n1c(=O)n(-c2cccc(C3CC3)c2)c2ccc(C(=O)NC3(C)CS(=O)(=O)C3)cc21 [Example 13, 1-(3-cyclopropylphenyl)-3-isopropyl-N-(3-methyl-1,1-dioxo-thietan-3-yl)-2-oxo-benzimidazole-5-carboxamide]	17
CC(C)n1c(=O)n(-c2cccc(OC3CC3)c2)c2ccc(C(=O)NC3(C)CS(=O)(=O)C3)cc21 [Example 14, 1-[3-(cyclopropoxy)phenyl]-3-isopropyl-N-(3-methyl-1,1-dioxo-thietan-3-yl)-2-oxo-benzimidazole-5-carboxamide]	15
CCOc1cc(-n2c(=O)n(C(C)C)c3cc(C(=O)NC4(C)CCS(=O)(=O)CC4)ccc32)c(F)cn1 [Example 15, 1-(2-Ethoxy-5-fluoropyridin-4-yl)-3-isopropyl-N-(4-methyl-1,1-dioxidotetrahydro-2H-thiopyran-4-yl)-2-oxo-2,3-dihydro-1H-benzo[d]imidazole-5-carboxamide]	6.7
CCOc1cc(-n2c(=O)n(C(C)C)c3cc(C(=O)NC4(C)CS(=O)(=O)C4)ccc32)c(F)cn1 [Example 16, 1-(2-ethoxy-5-fluoropyridin-4-yl)-3-isopropyl-N-(3-methyl-1,1-dioxidothietan-3-yl)-2-oxo-2,3-dihydro-1H-benzo[d]imidazole-5-carboxamide]	32
CCOc1cc(-n2c(=O)n(C(C)C)c3cc(C(=O)N[C@@]4(C)CCS(=O)(=O)C4)ccc32)c(F)cn1 [Example 17, (S)-1-(2-Ethoxy-5-fluoropyridin-4-yl)-3-isopropyl-N-(3-methyl-1,1-dioxidotetrahydrothiophen-3-yl)-2-oxo-2,3-dihydro-1H-benzo[d]imidazole-5-carboxamide]	122
CCOc1cc(-n2c(=O)n(C(C)C)c3cc(C(=O)N[C@]4(C)CCS(=O)(=O)C4)ccc32)c(F)cn1 [Example 18, (R)-1-(2-Ethoxy-5-fluoropyridin-4-yl)-3-isopropyl-N-(3-methyl-1,1-dioxidotetrahydrothiophen-3-yl)-2-oxo-2,3-dihydro-1H-benzo[d]imidazole-5-carboxamide]	28
